Organism: Rattus norvegicus
Experiment: DrugMatrix - Regimen: Daily Repeat
Format: toxicity, organism-based, Sprague-Dawley
Design: regimen Daily Repeat, gender Male, age 6-8 weeks
Conditions: in vivo, sc, route subcutaneous, […]; for ABSOLUTE BASOPHIL / ABSOLUTE EOSINOPHIL / ABSOLUTE LYMPHOCYTE / ABSOLUTE MONOCYTE / ABSOLUTE SEGMENTED NEUTROPHIL / BASOPHIL / EOSINOPHIL / ERYTHROCYTE COUNT / HEMATOCRIT / HEMOGLOBIN / LEUKOCYTE COUNT / LYMPHOCYTE / MEAN CORPUSCULAR HEMOGLOBIN / MEAN CORPUSCULAR HEMOGLOBIN CONCENTRATION / MEAN CORPUSCULAR VOLUME / MONOCYTE / NEUTROPHIL / NUCLEATED RED BLOOD CELLS / PLATELET COUNT: tissue Blood; for ALANINE AMINOTRANSFERASE / ALBUMIN / ALKALINE PHOSPHATASE / ASPARTATE AMINOTRANSFERASE / BLOOD UREA NITROGEN / CARBON DIOXIDE / CHLORIDE / CHOLESTEROL / CREATINE PHOSPHOKINASE / CREATININE / GLUCOSE / LACTATE DEHYDROGENASE / LIPASE / PHOSPHORUS / POTASSIUM / SODIUM / TOTAL BILIRUBIN / TOTAL PROTEIN / URIC ACID: tissue Plasma
[1] = 0 mg/kg, 72 h, dose level Control, time 3 day
[2] = 0 mg/kg, 120 h, dose level Control, time 5 day
[3] = 2 mg/kg, 72 h, dose level Low, time 3 day

## CCC(=O)O[C@]1(C(=O)CCl)[C@@H](C)C[C@H]2[C@@H]3CCC4=CC(=O)C=C[C@]4(C)[C@@]3(F)[C@@H](O)C[C@@]21C [CLOBETASOL PROPIONATE]
[1]
  ABSOLUTE BASOPHIL: 0 CELLS/uL
  ABSOLUTE EOSINOPHIL: 42.67 CELLS/uL
  ABSOLUTE LYMPHOCYTE: 10202 CELLS/uL
  ABSOLUTE MONOCYTE: 261.5 CELLS/uL
  ABSOLUTE SEGMENTED NEUTROPHIL: 2193.83 CELLS/uL
  BASOPHIL: 0%
  EOSINOPHIL: 0.33%
  ERYTHROCYTE COUNT: 5.63 x10E6/uL
  HEMATOCRIT: 35.35%
  HEMOGLOBIN: 13.07 G/DL
  LEUKOCYTE COUNT: 12.7 x10E3/uL
  LYMPHOCYTE: 81.17%
  MEAN CORPUSCULAR HEMOGLOBIN: 23.23 pg
  MEAN CORPUSCULAR HEMOGLOBIN CONCENTRATION: 36.97 G/DL
  MEAN CORPUSCULAR VOLUME: 62.82 fL
  MONOCYTE: 2%
  NEUTROPHIL: 16.5%
  NUCLEATED RED BLOOD CELLS: 0 /100WBC
  PLATELET COUNT: 1180.33 x10E3/uL
  ALANINE AMINOTRANSFERASE: 48.67 u/L
  ALBUMIN: 4.08 G/DL
  ALKALINE PHOSPHATASE: 360.67 u/L
  ASPARTATE AMINOTRANSFERASE: 85.5 u/L
  BLOOD UREA NITROGEN: 17.83 mg/dL
  CARBON DIOXIDE: 26.17 mmol/L
  CHLORIDE: 101.83 MEQ/L
  CHOLESTEROL: 71 mg/dL
  CREATINE PHOSPHOKINASE: 515.17 u/L
  CREATININE: 0.22 mg/dL
  GLUCOSE: 192.5 mg/dL
  LACTATE DEHYDROGENASE: 214.67 u/L
  LIPASE: 8.5 u/L
  PHOSPHORUS: 12.95 mg/dL
  POTASSIUM: 6.39 MEQ/L
  SODIUM: 142.38 MEQ/L
  TOTAL BILIRUBIN: 0.18 mg/dL
  TOTAL PROTEIN: 5.95 G/DL
  URIC ACID: 1.83 mg/dL
[2]
  ABSOLUTE BASOPHIL: 0 CELLS/uL
  ABSOLUTE EOSINOPHIL: 188.5 CELLS/uL
  ABSOLUTE LYMPHOCYTE: 12360.83 CELLS/uL
  ABSOLUTE MONOCYTE: 64.33 CELLS/uL
  ABSOLUTE SEGMENTED NEUTROPHIL: 1986.33 CELLS/uL
  BASOPHIL: 0%
  EOSINOPHIL: 1.33%
  ERYTHROCYTE COUNT: 5.52 x10E6/uL
  HEMATOCRIT: 35.82%
  HEMOGLOBIN: 13.25 G/DL
  LEUKOCYTE COUNT: 14.6 x10E3/uL
  LYMPHOCYTE: 84.5%
  MEAN CORPUSCULAR HEMOGLOBIN: 24.05 pg
  MEAN CORPUSCULAR HEMOGLOBIN CONCENTRATION: 36.98 G/DL
  MEAN CORPUSCULAR VOLUME: 64.97 fL
  MONOCYTE: 0.5%
  NEUTROPHIL: 13.67%
  NUCLEATED RED BLOOD CELLS: 0 /100WBC
  PLATELET COUNT: 1297.83 x10E3/uL
  ALANINE AMINOTRANSFERASE: 51.17 u/L
  ALBUMIN: 4.08 G/DL
  ALKALINE PHOSPHATASE: 393.17 u/L
  ASPARTATE AMINOTRANSFERASE: 111 u/L
  BLOOD UREA NITROGEN: 18.17 mg/dL
  CARBON DIOXIDE: 25 mmol/L
  CHLORIDE: 105.17 MEQ/L
  CHOLESTEROL: 65.5 mg/dL
  CREATINE PHOSPHOKINASE: 911.5 u/L
  CREATININE: 0.21 mg/dL
  GLUCOSE: 183 mg/dL
  LACTATE DEHYDROGENASE: 189 u/L
  LIPASE: 8.33 u/L
  PHOSPHORUS: 12.78 mg/dL
  POTASSIUM: 6.05 MEQ/L
  SODIUM: 144.57 MEQ/L
  TOTAL BILIRUBIN: 0.25 mg/dL
  TOTAL PROTEIN: 5.83 G/DL
  URIC ACID: 1.58 mg/dL
[3]
  ABSOLUTE BASOPHIL: 0 CELLS/uL
  ABSOLUTE EOSINOPHIL: 0 CELLS/uL
  ABSOLUTE LYMPHOCYTE: 788.33 CELLS/uL
  ABSOLUTE MONOCYTE: 9 CELLS/uL
  ABSOLUTE SEGMENTED NEUTROPHIL: 1836 CELLS/uL
  BASOPHIL: 0%
  EOSINOPHIL: 0%
  ERYTHROCYTE COUNT: 5.93 x10E6/uL
  HEMATOCRIT: 37.1%
  HEMOGLOBIN: 13.23 G/DL
  LEUKOCYTE COUNT: 2.63 x10E3/uL
  LYMPHOCYTE: 30%
  MEAN CORPUSCULAR HEMOGLOBIN: 22.33 pg
  MEAN CORPUSCULAR HEMOGLOBIN CONCENTRATION: 35.67 G/DL
  MEAN CORPUSCULAR VOLUME: 62.57 fL
  MONOCYTE: 0.33%
  NEUTROPHIL: 69.67%
  NUCLEATED RED BLOOD CELLS: 0 /100WBC
  PLATELET COUNT: 1219.67 x10E3/uL
  ALANINE AMINOTRANSFERASE: 121.33 u/L
  ALBUMIN: 4.93 G/DL
  ALKALINE PHOSPHATASE: 505.33 u/L
  ASPARTATE AMINOTRANSFERASE: 281.67 u/L
  BLOOD UREA NITROGEN: 25.67 mg/dL
  CARBON DIOXIDE: 21.33 mmol/L
  CHLORIDE: 99.33 MEQ/L
  CHOLESTEROL: 138.33 mg/dL
  CREATINE PHOSPHOKINASE: 1714.67 u/L
  CREATININE: 0.33 mg/dL
  GLUCOSE: 547 mg/dL
  LACTATE DEHYDROGENASE: 291 u/L
  LIPASE: 10 u/L
  PHOSPHORUS: 12.6 mg/dL
  POTASSIUM: 5.98 MEQ/L
  SODIUM: 140.33 MEQ/L
  TOTAL BILIRUBIN: 0.2 mg/dL
  TOTAL PROTEIN: 7.07 G/DL
  URIC ACID: 2.33 mg/dL

From ChEMBL document CHEMBL3885881, “DrugMatrix”
